Data on nine compounds can be found in patent US20160106654A1, “ADDITIVE OR SYNERGISTIC SUNSCREEN, ANTIOXIDANT, AND DNA REPAIR ENZYME COMPOSITION” (US CosmeceuTechs, LLC, priority 2014, published 2016).

For assay [1], the system named is Normal human epidermal keratinocytes (NHEK). In words: NHEK, UVB, and DNA damage analysis assay. The settings on record: 5 μg/mL; for inhibition at 5 µg/mL: Homo sapiens, light or radiation study; for 8-oxoG inhibition (%) / CPD inhibition (%): n = 2. Type of assay: cell-based.
For assay [2] the test system is unchanged. The assay can be described thus: NHEK, UVB, and protein carbonylation assay. Type of assay: cell-based. The settings on record: 5 μg/mL; for inhibition at 5 µg/mL: Homo sapiens, light or radiation study, n = 2, read-out: PC inhibition (%); for PC inhibition (%): n = 2. The text has this: The antioxidant(s) are preferably selected from those which protect against and/or prevent protein carbonylation (PC), protein glycation, lipidation, lipid glycation, protein alkylation, and/or lipid alkylation. Our system of evaluation from US 2006/0171886 A1, which may be modified to include a protein carbonylation, protein glycation, and/or protein alkylation analysis, may be used to evaluate the effectiveness of substances. Test results for selected antioxidants in the protection of human skin against protein carbonylation are shown below in Table 2.

Assay [3] has as its system cyclobutane pyrimidine dimer (CPD) and 8-oxo-7,8-dihydro-2′-deoxyguanosine (8OHdG) formation, and protein carbonylation. The assay can be described thus: Combined protection score (CPD, 8OHdG, protein carbonylation), normalized for concentration. The settings on record: for Total Score: a maximum total score is 60.
[4] abbreviates: n = 2, read-out: 8-oxoG inhibition (%).
Setting [5] is: n = 2, read-out: CPD inhibition (%).

The structures appear in SMILES notation.

As for `O=C(/C=C/c1ccc(O)c(O)c1)O[C@@H]1C[C@](O)(C(=O)O)C[C@@H](O)[C@H]1O` [Chlorogenic Acid], the inhibition (usually how much of the control response was suppressed) at 5 µg/mL amounted to 52.5% in assay [1] (setting [4]), 36% in assay [1] (setting [5]) and 0% in assay [2].
Regarding `O=C(O[C@@H]1Cc2c(O)cc(O)cc2O[C@@H]1c1cc(O)c(O)c(O)c1)c1cc(O)c(O)c(O)c1` [Epigallocatechin Gallate], in assay [1], the “8-oxoG inhibition (%)” value is 41.9% and the “CPD inhibition (%)” value was determined as 44.5%. In assay [2], the “PC inhibition (%)” value was 100%. For the same compound, in assay [3], the “8oxo Score” value amounted to 18, the “CPDs Score” value is recorded as 15, the “PC Score” value was determined as 3 and the “Total Score” value is 36.
Turning to `COc1cc(/C=C/C(=O)O)ccc1O` [Ferulic Acid], in assay [1] (setting [4]), the inhibition at 5 µg/mL was found to be 41.1%. Also, in assay [1] (setting [5]), the inhibition at 5 µg/mL amounted to 15.7%. Moreover, in assay [2], the inhibition at 5 µg/mL stood at 0%. In assay [3], the “8oxo Score” value turned out to be 19, the “CPDs Score” value is recorded as 17, the “PC Score” value is listed as 10 and the “Total Score” value was 46.
With `O=C1O[C@H]([C@@H](O)CO)C(O)=C1O` [L-Ascorbic Acid], the inhibition at 5 µg/mL in assay [1] (setting [4]) is 44.1%. In assay [1] (setting [5]), the inhibition at 5 µg/mL came to 33.1%. Moreover, the inhibition at 5 µg/mL in assay [2] came out at 87.2%. Also, in assay [3], the “8oxo Score” value is recorded as 20, the “CPDs Score” value stood at 16, the “PC Score” value is on record as 0 and the “Total Score” value amounted to 36.
Consider `NCCC(=O)N[C@@H](Cc1cnc[nH]1)C(=O)O` [L-Carnosine], for which, in assay [1], the “8-oxoG inhibition (%)” value is on record as 45.0% and the “CPD inhibition (%)” value worked out at 51.6%. In addition, the “PC inhibition (%)” value in assay [2] amounted to 100%. Besides, in assay [3], the “8oxo Score” value came to 17, the “CPDs Score” value stood at 18, the “PC Score” value worked out at 17 and the “Total Score” value turned out to be 52.
In the case of `C[N+](C)(C)[C@@H](Cc1c[nH]c(=S)[nH]1)C(=O)[O-]` [L-Ergothioneine], the “PC inhibition (%)” value in assay [2] is listed as 100%. Besides, in assay [3], the “8oxo Score” value is recorded as 14, the “CPDs Score” value is on record as 17, the “PC Score” value is 16 and the “Total Score” value was determined as 47.
With `O=c1c(O)c(-c2ccc(O)c(O)c2)oc2cc(O)cc(O)c12` [Quercetin], the results for the inhibition at 5 µg/mL in assay [1] (setting [4]), in assay [1] (setting [5]) and in assay [2] were 42.4%, 45.7% and 0%, respectively.
On to `Oc1ccc(C=Cc2cc(O)cc(O)c2)cc1` [Resveratrol], for which the inhibition at 5 µg/mL in assay [1] (setting [4]) stood at 40.6%. For the same compound, the inhibition at 5 µg/mL in assay [1] (setting [5]) is 51.9%. In assay [2], the inhibition at 5 µg/mL came to 0%. Besides, in assay [3], the “8oxo Score” value is 18, the “CPDs Score” value was determined as 17, the “PC Score” value worked out at 12 and the “Total Score” value was found to be 47.
With `Cc1c(C)c2c(c(C)c1O)CC[C@@](C)(CCC[C@H](C)CCC[C@H](C)CCCC(C)C)O2` [α-Tocopherol], in assay [3], the “8oxo Score” value is 18, the “CPDs Score” value is 16, the “PC Score” value is listed as 12 and the “Total Score” value is on record as 46.
